Test results as given in patent US5514561A, “Fluorogenic and chromogenic β-lactamase substrates” (priority 1994, dated 1996).

Tests used:
Format in all cases: biochemical
[1] = target: wildtype enzyme, TEM-1 β-lactamase (Escherichia coli, UniProt P62593); assay: Kinetic rate determinations, wild type enzyme; details: 300 sec, ranking among enzymes; for rate of cleavage (hydrolysis) of fluorogenic substrate: wild type enzyme, fluorescence 365/440 nm
Method: (§1) The fluorogenic β-lactamase substrates of the invention were tested for their ability to be hydrolyzed by β-lactamase with release of the fluorescent moiety. The kinetics of hydrolysis were compared to the kinetics of hydrolysis of nitrocefin. The two fluorogenic substrates tested were hydrolyzed using three mutant β-lactamases found in cephem resistant bacteria to compare the rate of hydrolysis with the wildtype enzyme, TEM-1 (Ambler. Phil. Trans. R. Soc. Lond. 289: 321 (1980); Sougakoff et al. Reviews of Infectious Diseases 10: 879 (1988)).
(§2) Nitrocefin kinetics were determined using a Hewlett-Packard 854A spectrophotometer with Chem Station programing, Hewlett-Packard Company Scientific Instruments Division (Palo Alto, Calif.). The data were fit to an unweighted Michaelis-Menten equation using the non-linear data regression package ENZFITTER (Elsevier-BIOSOFT, Cambridge, United Kingdom). The buffer used for all dilutions was 9:1 (50 mM phosphate buffer pH 7.2: DMSO), designated buffer A. The rate of hydrolysis for nitrocefin was determined at a range of 504-514 nm for 300 sec. […] Rates were determined using from 1-0.004 mL of nitrocefin solution diluted to 1 mL total with buffer A. Rate determining experiments were done using 9 different concentrations of the nitrocefin solution and a 1:25 dilution of each enzyme in buffer A.
(§3) Fluorescence kinetics were determined on a Perkin-Elmer LS-5 fluorescence spectrometer Perkin-Elmer Corp. (Norwalk, Conn.) for duration of 300 sec. […] Rates were determined using the following solutions: a) 10.8 mg cephalothin AMC carbamate dissolved in mL of DMSO diluted to 15 mL with buffer A, and b) 11.9 mg cefotaxime AMC carbamate dissolved in 1 mL DMSO diluted to 15 mL with buffer A. For each experiment 0.1 mL of substrate solution was diluted to 3 mL with buffer A. To this was added 0.03 mL of enzyme solution containing (25:1 dilution of the enzyme in buffer A). Fluorescence was read for 300 sec. The rates were determined for both substrates at this concentration for all enzymes tested.

[2] = target: 237(SER) mutant β-lactamase (Escherichia coli, UniProt P62593, A235S); assay: Kinetic rate determinations, 237(SER) mutant
Method: as §1, §2, §3

[3] = target: 238(SER) mutant β-lactamase (Escherichia coli, UniProt P62593, G236S); assay: Kinetic rate determinations, 238(SER) mutant
Method: as §1, §2, §3

[4] = target: 104(LYS) mutant β-lactamase (Escherichia coli, UniProt P62593, E102K); assay: Kinetic rate determinations, 104(LYS) mutant
Method: as §1, §2, §3

β-lactamase = assay: Cleavage of chromogenic substrates, diazonium salt added to reaction mixture; details: releases 3-aminoindole
Description: Cleavage of the β-lactam ring of cefotaxime indole carbamate or cephalothin indole carbamate produces a cascade of electron migration which releases 3-aminoindole.

[5] = system: β-lactamase (wild type and all mutant enzymes); assay: Kinetic rate determinations, fluorogenic substrates, all enzymes; details: by the wild type and all mutant enzymes
Method: as §1
Fluorescence kinetics were determined on a Perkin-Elmer LS-5 fluorescence spectrometer Perkin-Elmer Corp. (Norwalk, Conn.) for duration of 300 sec. Excitation and emission wavelengths were set to 365 and 440 nm with slits of 10 and 3 nm, respectively. Buffer A was used for all dilutions. […] Rates were determined using the following solutions: a) 10.8 mg cephalothin AMC carbamate dissolved in mL of DMSO diluted to 15 mL with buffer A, and b) 11.9 mg cefotaxime AMC carbamate dissolved in 1 mL DMSO diluted to 15 mL with buffer A. For each experiment 0.1 mL of substrate solution was diluted to 3 mL with buffer A. To this was added 0.03 mL of enzyme solution containing (25:1 dilution of the enzyme in buffer A). Fluorescence was read for 300 sec. The rates were determined for both substrates at this concentration for all enzymes tested.

CO/N=C(\C(=O)N[C@@H]1C(=O)N2C(C(=O)O)=C(COC(=O)Nc3ccc4c(C)cc(=O)oc4c3)CS[C@H]12)c1csc(N)n1 [cefotaxime AMC carbamate, Cefotaxime AMC Carbamate]
rate of cleavage (hydrolysis) of fluorogenic substrate [1]: cleaved most slowly
increase in hydrolysis rate in comparison to wild type β-lactamase ([2]; fluorescence): 60%
increase in the rate of hydrolysis in comparison to wild type β-lactamase ([3]; 238(SER) mutation, fluorescence): greater than 100%
increase in the rate of hydrolysis in comparison to wild type β-lactamase ([4]; 104(LYS) mutation, fluorescence): greater than 100%

CO/N=C(\C(=O)N[C@@H]1C(=O)N2C(C(=O)O)=C(COC(=O)Nc3c[nH]c4ccccc34)CS[C@H]12)c1csc(N)n1 [cefotaxime indole carbamate, Cefotaxime Indole Carbamate]
product after cleavage with β-lactamase and addition of various diazonium salts (β-lactamase): produced a colored precipitate

O=C(Cc1cccs1)N[C@@H]1C(=O)N2C(C(=O)O)=C(COC(=O)Nc3c[nH]c4ccccc34)CS[C@H]12 [cephalothin indole carbamate, Cephalothin Aminoindole Carbamate]
product after cleavage with β-lactamase and addition of various diazonium salts (β-lactamase): produced a colored precipitate

Cc1cc(=O)oc2cc(NC(=O)OCC3=C(C(=O)O)N4C(=O)[C@@H](NC(=O)Cc5cccs5)[C@H]4SC3)ccc12 [cephalothin AMC carbamate, Cephalothin AMC Carbamate]
rate of cleavage (hydrolysis) of fluorogenic substrate [1]: followed closely by the wild type enzyme
rate of cleavage (hydrolysis) of fluorogenic substrate ([2]; fluorescence 365/440 nm, 300 sec, ranking among enzymes): cleaved fastest
rate of cleavage (hydrolysis) of fluorogenic substrate ([3]; 238(SER) mutant, fluorescence 365/440 nm, 300 sec, ranking among enzymes): most slowly
rate of cleavage relative to that of the 237(SER) enzyme ([4]; 104(LYS) mutant, fluorescence 365/440 nm, 300 sec): about half that of the 237(SER) enzyme
rate of cleavage compared between the two fluorogenic substrates [5]: cleaved faster than the cefotaxime AMC carbamate

O=C(Cc1cccs1)N[C@@H]1C(=O)N2C(C(=O)O)=C(/C=C/c3ccc([N+](=O)[O-])cc3[N+](=O)[O-])CS[C@H]12 [nitrocefin, Nitrocefin, reference compound]
rate of hydrolysis for nitrocefin ([1]; wild type, spectrophotometric 504-514 nm): followed by wild type
rate of hydrolysis for nitrocefin ([2]; spectrophotometric 504-514 nm, 300 sec, ranking among enzymes): fastest
rate of hydrolysis for nitrocefin ([3]; 238(SER) mutant, spectrophotometric 504-514 nm, 300 sec, ranking among enzymes): then the 104(LYS) and 238(SER) mutants
rate of hydrolysis for nitrocefin ([4]; 104(LYS) mutant, spectrophotometric 504-514 nm, 300 sec, ranking among enzymes): then the 104(LYS) and 238(SER) mutants
